Experimental data taken from ChEMBL document CHEMBL1201862, “PubChem BioAssay data set” (2004).
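Cultured in 96-well plates, cells were exposed to test compound for 48 hours across five concentrations. GI50: concentration for 50% inhibition of growth.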 Active and inactive are the calls of the source. Cut-off read from the data, not from the text of the source: active = GI50 up to about 1.1 µM and inactive = higher.

Legend:
Test in all cases: NCI anticancer screen, dose series, 48 h
CAKI-1 = system: CAKI-1
EKVX = system: EKVX
HT-29 = system: HT-29
SF-539 = system: SF-539
CCRF-CEM = system: CCRF-CEM
SK-MEL-2 = system: SK-MEL-2
786-0 = system: 786-0
IGROV-1 = system: IGROV-1
UACC-257 = system: UACC-257
OVCAR-5 = system: OVCAR-5
M19-MEL = system: M19-MEL
LXFL 529 = system: LXFL 529
SW-620 = system: SW-620
HCT-15 = system: HCT-15
RXF 393 = system: RXF 393
K562 = system: K562
Malme-3M = system: Malme-3M
A498 = system: A498
NCI-H226 = system: NCI-H226
SK-MEL-5 = system: SK-MEL-5
NCI-H23 = system: NCI-H23
HOP-18 = system: HOP-18
NCI-H522 = system: NCI-H522
DMS-273 = system: DMS-273
HCT-116 = system: HCT-116
U-251 = system: U-251
UACC-62 = system: UACC-62
KM12 = system: KM12
HOP-92 = system: HOP-92
SF-295 = system: SF-295
COLO 205 = system: COLO 205
OVCAR-3 = system: OVCAR-3
OVCAR-4 = system: OVCAR-4
LOX IMVI = system: LOX IMVI
SNB-75 = system: SNB-75
TK-10 = system: TK-10
OVCAR-8 = system: OVCAR-8
SNB-19 = system: SNB-19
HL-60 = system: HL-60
UO-31 = system: UO-31
DLD-1 = system: DLD-1
SF-268 = system: SF-268
MOLT-4 = system: MOLT-4
SNB-78 = system: SNB-78
SK-OV-3 = system: SK-OV-3
SN12C = system: SN12C
DMS-114 = system: DMS-114
RPMI-8226 = system: RPMI-8226
RXF 631 = system: RXF 631
M14 = system: M14
SK-MEL-28 = system: SK-MEL-28
HCC 2998 = system: HCC 2998
A549 = system: A549
ACHN = system: ACHN
KM-20L2 = system: KM-20L2
HOP-62 = system: HOP-62
XF498 = system: XF498
NCI-H460 = system: NCI-H460

In the case of `CN1C(=O)C2C=CC1C1CCC2N(C)C1=O` (stereo not drawn), the GI50 (CAKI-1) is reported as > 100 µM (inactive), the GI50 (EKVX) is reported as > 100 µM (inactive) and the GI50 (HT-29) is reported as > 100 µM (inactive). For the same compound, the GI50 (SF-539) was > 100 µM (inactive), the GI50 (CCRF-CEM) was > 100 µM (inactive) and the GI50 (SK-MEL-2) was > 100 µM (inactive). For the same compound, the GI50 (786-0) was > 100 µM (inactive), the GI50 (IGROV-1) was > 100 µM (inactive) and the GI50 (UACC-257) was > 100 µM (inactive). The GI50 (OVCAR-5) was > 100 µM (inactive), the GI50 (M19-MEL) was > 100 µM (inactive) and the GI50 (LXFL 529) was > 100 µM (inactive). For the same compound, the GI50 (SW-620) was > 100 µM (inactive), the GI50 (HCT-15) was over 100 µM and the GI50 (RXF 393) was > 100 µM (inactive). The GI50 (K562) was > 100 µM (inactive), the GI50 (Malme-3M) was > 100 µM (inactive) and the GI50 (A498) was > 100 µM (inactive). The GI50 (NCI-H226) was > 100 µM (inactive), the GI50 (SK-MEL-5) was > 100 µM (inactive) and the GI50 (NCI-H23) was > 100 µM (inactive). For the same compound, the GI50 (HOP-18) was > 100 µM (inactive), the GI50 (NCI-H522) was > 100 µM (inactive) and the GI50 (DMS-273) was > 100 µM (inactive). The GI50 (HCT-116) was > 100 µM (inactive), the GI50 (U-251) was > 100 µM (inactive) and the GI50 (UACC-62) was > 100 µM (inactive). The GI50 (KM12) was > 100 µM (inactive), the GI50 (HOP-92) was > 100 µM (inactive) and the GI50 (SF-295) was > 100 µM (inactive). The GI50 (COLO 205) was > 100 µM (inactive), the GI50 (OVCAR-3) was > 100 µM (inactive) and the GI50 (OVCAR-4) was > 100 µM (inactive). The GI50 (LOX IMVI) was > 100 µM (inactive), the GI50 (SNB-75) was > 100 µM (inactive) and the GI50 (TK-10) was > 100 µM (inactive). For the same compound, the GI50 (OVCAR-8) was > 100 µM (inactive), the GI50 (SNB-19) was > 100 µM (inactive) and the GI50 (HL-60) was > 100 µM (inactive). The GI50 (UO-31) was > 100 µM (inactive), the GI50 (DLD-1) was > 100 µM (inactive) and the GI50 (SF-268) was > 100 µM (inactive). For the same compound, the GI50 (MOLT-4) was > 100 µM (inactive), the GI50 (SNB-78) was > 100 µM (inactive) and the GI50 (SK-OV-3) was > 100 µM (inactive). The GI50 (SN12C) was > 100 µM (inactive), the GI50 (DMS-114) was > 100 µM (inactive) and the GI50 (RPMI-8226) was > 100 µM (inactive). For the same compound, the GI50 (RXF 631) was > 100 µM (inactive), the GI50 (M14) was > 100 µM (inactive) and the GI50 (SK-MEL-28) was > 100 µM (inactive). The GI50 (HCC 2998) was > 100 µM (inactive) and the GI50 (A549) was > 100 µM (inactive).
For `O=C1C2=C(c3ccccc31)C(c1ccccc1Cl)N1C(=O)CCSC1=N2` (stereo not drawn), the GI50 (ACHN) was > 100 µM (inactive), the GI50 (KM-20L2) was > 100 µM (inactive) and the GI50 (CAKI-1) was > 100 µM (inactive). For the same compound, the GI50 (EKVX) was > 100 µM (inactive), the GI50 (HOP-62) was > 100 µM (inactive) and the GI50 (HT-29) was > 100 µM (inactive). The GI50 (SF-539) was > 100 µM (inactive), the GI50 (CCRF-CEM) was > 100 µM (inactive) and the GI50 (SK-MEL-2) was > 100 µM (inactive). For the same compound, the GI50 (786-0) was > 100 µM (inactive), the GI50 (IGROV-1) was > 100 µM (inactive) and the GI50 (UACC-257) was > 100 µM (inactive). The GI50 (OVCAR-5) was > 100 µM (inactive), the GI50 (M19-MEL) was > 100 µM (inactive) and the GI50 (XF498) was 79.3 µM (inactive). The GI50 (SW-620) was > 100 µM (inactive), the GI50 (HCT-15) was over 100 µM and the GI50 (K562) was > 100 µM (inactive). For the same compound, the GI50 (Malme-3M) was > 100 µM (inactive), the GI50 (A498) was > 100 µM (inactive) and the GI50 (NCI-H226) was > 100 µM (inactive). For the same compound, the GI50 (SK-MEL-5) was > 100 µM (inactive), the GI50 (NCI-H23) was 76 µM (inactive) and the GI50 (NCI-H522) was 35.7 µM (inactive). For the same compound, the GI50 (DMS-273) was > 100 µM (inactive), the GI50 (HCT-116) was > 100 µM (inactive) and the GI50 (U-251) was > 100 µM (inactive). For the same compound, the GI50 (UACC-62) was 76.7 µM (inactive), the GI50 (KM12) was > 100 µM (inactive) and the GI50 (HOP-92) was 30.1 µM (inactive). The GI50 (SF-295) was > 100 µM (inactive), the GI50 (COLO 205) was > 100 µM (inactive) and the GI50 (OVCAR-3) was > 100 µM (inactive). The GI50 (OVCAR-4) was 45.4 µM (inactive), the GI50 (SNB-75) was 55.2 µM (inactive) and the GI50 (TK-10) was > 100 µM (inactive). The GI50 (OVCAR-8) was > 100 µM (inactive), the GI50 (SNB-19) was > 100 µM (inactive) and the GI50 (HL-60) was > 100 µM (inactive). For the same compound, the GI50 (UO-31) was 58.1 µM (inactive), the GI50 (DLD-1) was > 100 µM (inactive) and the GI50 (SF-268) was > 100 µM (inactive). The GI50 (MOLT-4) was 84.7 µM (inactive), the GI50 (SK-OV-3) was > 100 µM (inactive) and the GI50 (SN12C) was 89.9 µM (inactive). The GI50 (DMS-114) was > 100 µM (inactive), the GI50 (RPMI-8226) was 81.5 µM (inactive) and the GI50 (RXF 631) was > 100 µM (inactive). For the same compound, the GI50 (M14) was > 100 µM (inactive), the GI50 (SK-MEL-28) was > 100 µM (inactive) and the GI50 (HCC 2998) was > 100 µM (inactive). For the same compound, the GI50 (A549) was > 100 µM (inactive).
With `CC/C(=C(\c1ccccc1)c1ccc(OCC[N+](C)(C)C)cc1)c1ccccc1` [TAMOXIFEN METHYL IODIDE] the GI50 (ACHN) was 17.5 µM (inactive), the GI50 (KM-20L2) was 15.7 µM (inactive) and the GI50 (CAKI-1) was 17.5 µM (inactive). For the same compound, the GI50 (EKVX) was 15.6 µM (inactive), the GI50 (HOP-62) was 32.4 µM (inactive) and the GI50 (HT-29) was 14.6 µM (inactive). For the same compound, the GI50 (SF-539) was 21.6 µM (inactive), the GI50 (CCRF-CEM) was 11.5 µM (inactive) and the GI50 (SK-MEL-2) was 13.8 µM (inactive). The GI50 (786-0) was 13.7 µM (inactive), the GI50 (IGROV-1) was 8.81 µM (inactive) and the GI50 (UACC-257) was 6.75 µM (inactive). The GI50 (M19-MEL) was 11.6 µM (inactive), the GI50 (LXFL 529) was 10 µM (inactive) and the GI50 (SW-620) was 16 µM (inactive). The GI50 (HCT-15) was 17.7 µM, the GI50 (RXF 393) was 17.1 µM (inactive) and the GI50 (K562) was 5.65 µM (inactive). The GI50 (Malme-3M) was 12.8 µM (inactive), the GI50 (A498) was 19 µM (inactive) and the GI50 (NCI-H226) was 10.2 µM (inactive). The GI50 (SK-MEL-5) was 4.59 µM (inactive), the GI50 (HOP-18) was 13.1 µM (inactive) and the GI50 (NCI-H522) was 4.99 µM (inactive). For the same compound, the GI50 (DMS-273) was 6.4 µM (inactive), the GI50 (HCT-116) was 17.5 µM (inactive) and the GI50 (U-251) was 13.4 µM (inactive). For the same compound, the GI50 (UACC-62) was 11 µM (inactive), the GI50 (KM12) was 13.3 µM (inactive) and the GI50 (SF-295) was 16.9 µM (inactive). For the same compound, the GI50 (COLO 205) was 5.31 µM (inactive), the GI50 (OVCAR-3) was 4.76 µM (inactive) and the GI50 (OVCAR-4) was 13 µM (inactive). The GI50 (LOX IMVI) was 11.3 µM (inactive), the GI50 (SNB-75) was 8.85 µM (inactive) and the GI50 (OVCAR-8) was 15.3 µM (inactive). The GI50 (SNB-19) was 17.4 µM (inactive), the GI50 (HL-60) was 2.52 µM (inactive) and the GI50 (UO-31) was 21.1 µM (inactive). The GI50 (DLD-1) was 15.6 µM (inactive), the GI50 (SF-268) was 15.3 µM (inactive) and the GI50 (MOLT-4) was 17.7 µM (inactive). For the same compound, the GI50 (SNB-78) was 12.2 µM (inactive), the GI50 (SK-OV-3) was 17.5 µM (inactive) and the GI50 (SN12C) was 9.16 µM (inactive). The GI50 (DMS-114) was 9.12 µM (inactive), the GI50 (NCI-H460) was 17.1 µM (inactive) and the GI50 (RPMI-8226) was 9.29 µM (inactive). For the same compound, the GI50 (RXF 631) was 19.6 µM (inactive), the GI50 (M14) was 14.7 µM (inactive) and the GI50 (SK-MEL-28) was 8.59 µM (inactive). The GI50 (HCC 2998) was 17.1 µM (inactive) and the GI50 (A549) was 18.7 µM (inactive).
